Data published in patent US20250230193A1, “CYCLIC COMPOUND HAVING SELECTIVE KRAS INHIBITORY EFFECT ON HRAS AND NRAS” (CHUGAI SEIYAKU KABUSHIKI KAISHA, priority 2022, published 2025).
Where a SMILES comes first, the peptide text is derived from it. Bridges are numbered along the chain shown (N, C = ends). [ ]: non-standard residue; d: D form. The star is where a group is joined. hPhe(3-Cl-4-CF3) = N[C@@H](CCc1ccc(C(F)(F)F)c(Cl)c1)C(=O)O; NPrPhe(4-CF3) = CCCN[C@@H](Cc1ccc(C(F)(F)F)cc1)C(=O)O; NMeGly(cPent) = CN[C@H](C(=O)O)C1CCCC1; Pro(4,4-F2) = O=C(O)[C@@H]1CC(F)(F)CN1; Hyp = O=C(O)[C@@H]1C[C@@H](O)CN1; NMeD = CN[C@@H](CC(=O)O)C(=O)O; NMeL = CN[C@@H](CC(C)C)C(=O)O; N(Me)CH2CH2OMe = COCCN(C)*; Morpholide = C1CN(*)CCO1; Ac5c = NC1(C(=O)O)CCCC1; Aze = O=C(O)[C@@H]1CCN1; Ac4c = NC1(C(=O)O)CCC1; NEtG = CCNCC(=O)O; Sar = CNCC(=O)O

Assays:
[1] = target: GDP-bound HRAS wild-type protein (Homo sapiens, UniProt P01112); test: Binding to HRAS by surface plasmon resonance (SPR), Single Cycle Kinetics; conditions: KD ratio HRAS/KRAS, SPR
GDP-bound HRAS wild-type protein, sequence (P01112 whole entry): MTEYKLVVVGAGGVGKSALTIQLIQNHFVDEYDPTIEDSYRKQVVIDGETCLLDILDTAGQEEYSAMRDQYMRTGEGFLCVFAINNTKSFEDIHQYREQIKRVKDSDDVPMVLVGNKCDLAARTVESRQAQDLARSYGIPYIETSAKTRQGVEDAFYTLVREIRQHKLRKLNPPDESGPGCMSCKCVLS

[2] = target: GDP-bound NRAS wild-type protein (Homo sapiens, UniProt P01111); test: Binding to NRAS by surface plasmon resonance (SPR), Single Cycle Kinetics; conditions: KD ratio NRAS/KRAS, SPR
GDP-bound NRAS wild-type protein, sequence (P01111 whole entry): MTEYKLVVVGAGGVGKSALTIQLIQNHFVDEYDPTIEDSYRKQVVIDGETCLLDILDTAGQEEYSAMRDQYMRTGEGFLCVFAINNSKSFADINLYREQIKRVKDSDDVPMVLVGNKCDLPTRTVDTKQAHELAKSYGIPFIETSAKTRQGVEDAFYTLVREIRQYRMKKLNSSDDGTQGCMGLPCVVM

Row | Structure (SMILES) | HRAS/KRAS (ratio of KD for GDP-bound HRAS wild-type to KD for KRAS) [1] | NRAS/KRAS (ratio of KD for GDP-bound NRAS wild-type to KD for KRAS) [2]
1 | CCCN1C(=O)[C@@H]2CCN2C(=O)CN(C)C(=O)[C@H]([C@@H](C)CC)NC(=O)[C@H](CC(C)C)N(C)C(=O)C[C@@H](C(=O)N(C)C)NC(=O)[C@H](C2CCCC2)N(C)C(=O)C2(CCC2)NC(=O)[C@@H]2C[C@@H](OCC)CN2C(=O)[C@H](CCc2ccc(C(F)(F)F)c(Cl)c2)NC(=O)CN(C)C(=O)[C@@H]1Cc1ccc(C(F)(F)F)cc1 [PP0390] ([NMeL]I[Sar][Aze][NPrPhe(4-CF3)][Sar][hPhe(3-Cl-4-CF3)][Hyp](Et)[Ac4c][NMeGly(cPent)]D-NMe2; lactam N-11) | B (a compound having 3 or more and less than 10 is denoted as B) | C (A compound having a KD ratio of 0.1 or more and less than 3 is denoted as C)
2 | CCCN1C(=O)CN(C)C(=O)CN(C)C(=O)[C@H]([C@@H](C)CC)NC(=O)[C@H](CC(C)C)N(C)C(=O)C[C@@H](C(=O)N(C)CCOC)N(C)C(=O)[C@H](C2CCCC2)N(C)C(=O)C2(CCCC2)NC(=O)[C@@H]2CCCN2C(=O)[C@H](CCc2ccc(C(F)(F)F)c(Cl)c2)NC(=O)CN(C)C(=O)[C@@H]1Cc1ccc(C(F)(F)F)cc1 [PP0391] ([NMeL]I[Sar][Sar][NPrPhe(4-CF3)][Sar][hPhe(3-Cl-4-CF3)]P[Ac5c][NMeGly(cPent)][NMeD]-{N(Me)CH2CH2OMe}; lactam N-11) | B (a compound having 3 or more and less than 10 is denoted as B) | B (a compound having 3 or more and less than 10 is denoted as B)
3 | CCCN1C(=O)CN(C)C(=O)CN(C)C(=O)[C@H]([C@@H](C)CC)NC(=O)[C@H](CC(C)C)N(C)C(=O)C[C@@H](C(=O)N2CCOCC2)N(C)C(=O)[C@H](C2CCCC2)N(C)C(=O)C2(CCC2)NC(=O)[C@@H]2C[C@@H](OCC)CN2C(=O)[C@H](CCc2ccc(C(F)(F)F)c(Cl)c2)NC(=O)CN(C)C(=O)[C@@H]1Cc1ccc(C(F)(F)F)cc1 [PP0392] ([NMeL]I[Sar][Sar][NPrPhe(4-CF3)][Sar][hPhe(3-Cl-4-CF3)][Hyp](Et)[Ac4c][NMeGly(cPent)][NMeD]-Morpholide; lactam N-11) | C (A compound having a KD ratio of 0.1 or more and less than 3 is denoted as C) | B (a compound having 3 or more and less than 10 is denoted as B)
4 | CCCN1C(=O)CN(C)C(=O)CNC(=O)[C@H]([C@@H](C)CC)NC(=O)[C@H](CC(C)C)N(C)C(=O)C[C@@H](C(=O)N2CCOCC2)N(C)C(=O)[C@H](C2CCCC2)N(C)C(=O)C2(CCC2)NC(=O)[C@@H]2CCCN2C(=O)[C@H](CCc2ccc(C(F)(F)F)c(Cl)c2)NC(=O)CN(C)C(=O)[C@@H]1Cc1ccc(C(F)(F)F)cc1 [PP0393] ([NMeL]IG[Sar][NPrPhe(4-CF3)][Sar][hPhe(3-Cl-4-CF3)]P[Ac4c][NMeGly(cPent)][NMeD]-Morpholide; lactam N-11) | B (a compound having 3 or more and less than 10 is denoted as B) | B (a compound having 3 or more and less than 10 is denoted as B)
5 | CCCN1C(=O)CN(C)C(=O)CNC(=O)[C@H]([C@@H](C)CC)NC(=O)[C@H](CC(C)C)N(C)C(=O)C[C@@H](C(=O)N2CCOCC2)N(C)C(=O)[C@H](C2CCCC2)N(C)C(=O)C2(CCCC2)NC(=O)[C@@H]2CC(F)(F)CN2C(=O)[C@H](CCc2ccc(C(F)(F)F)c(Cl)c2)NC(=O)CN(C)C(=O)[C@@H]1Cc1ccc(C(F)(F)F)cc1 [PP0394] ([NMeL]IG[Sar][NPrPhe(4-CF3)][Sar][hPhe(3-Cl-4-CF3)][Pro(4,4-F2)][Ac5c][NMeGly(cPent)][NMeD]-Morpholide; lactam N-11) | C (A compound having a KD ratio of 0.1 or more and less than 3 is denoted as C) | C (A compound having a KD ratio of 0.1 or more and less than 3 is denoted as C)
6 | CCCN1C(=O)CN(C)C(=O)CNC(=O)[C@H]([C@@H](C)CC)NC(=O)[C@H](CC(C)C)N(C)C(=O)C[C@@H](C(=O)N2CCOCC2)N(C)C(=O)[C@H](C2CCCC2)N(C)C(=O)C2(CCC2)NC(=O)[C@@H]2CC(F)(F)CN2C(=O)[C@H](CCc2ccc(C(F)(F)F)c(Cl)c2)NC(=O)CN(C)C(=O)[C@@H]1Cc1ccc(C(F)(F)F)cc1 [PP0395] ([NMeL]IG[Sar][NPrPhe(4-CF3)][Sar][hPhe(3-Cl-4-CF3)][Pro(4,4-F2)][Ac4c][NMeGly(cPent)][NMeD]-Morpholide; lactam N-11) | C (A compound having a KD ratio of 0.1 or more and less than 3 is denoted as C) | B (a compound having 3 or more and less than 10 is denoted as B)
7 | CCCN1C(=O)CN(C)C(=O)CNC(=O)[C@H]([C@@H](C)CC)NC(=O)[C@H](CC(C)C)N(C)C(=O)C[C@@H](C(=O)N2CCOCC2)N(C)C(=O)[C@H](C2CCCC2)N(C)C(=O)C2(CCCC2)NC(=O)[C@@H]2C[C@@H](OCC)CN2C(=O)[C@H](CCc2ccc(C(F)(F)F)c(Cl)c2)NC(=O)CN(C)C(=O)[C@@H]1Cc1ccc(C(F)(F)F)cc1 [PP0396] ([NMeL]IG[Sar][NPrPhe(4-CF3)][Sar][hPhe(3-Cl-4-CF3)][Hyp](Et)[Ac5c][NMeGly(cPent)][NMeD]-Morpholide; lactam N-11) | C (A compound having a KD ratio of 0.1 or more and less than 3 is denoted as C) | B (a compound having 3 or more and less than 10 is denoted as B)
8 | CCCN1C(=O)CN(C)C(=O)CNC(=O)[C@H]([C@@H](C)CC)NC(=O)[C@H](CC(C)C)N(C)C(=O)C[C@@H](C(=O)N2CCOCC2)N(C)C(=O)[C@H](C2CCCC2)N(C)C(=O)C2(CCC2)NC(=O)[C@@H]2C[C@@H](OCC)CN2C(=O)[C@H](CCc2ccc(C(F)(F)F)c(Cl)c2)NC(=O)CN(C)C(=O)[C@@H]1Cc1ccc(C(F)(F)F)cc1 [PP0397] ([NMeL]IG[Sar][NPrPhe(4-CF3)][Sar][hPhe(3-Cl-4-CF3)][Hyp](Et)[Ac4c][NMeGly(cPent)][NMeD]-Morpholide; lactam N-11) | C (A compound having a KD ratio of 0.1 or more and less than 3 is denoted as C) | C (A compound having a KD ratio of 0.1 or more and less than 3 is denoted as C)
9 | CCCN1C(=O)CN(C)C(=O)CN(CC)C(=O)[C@H]([C@@H](C)CC)NC(=O)[C@H](CC(C)C)N(C)C(=O)C[C@@H](C(=O)N2CCOCC2)N(C)C(=O)[C@H](C2CCCC2)N(C)C(=O)C2(CCC2)NC(=O)[C@@H]2CCCN2C(=O)[C@H](CCc2ccc(C(F)(F)F)c(Cl)c2)NC(=O)CN(C)C(=O)[C@@H]1Cc1ccc(C(F)(F)F)cc1 [PP0398] ([NMeL]I[NEtG][Sar][NPrPhe(4-CF3)][Sar][hPhe(3-Cl-4-CF3)]P[Ac4c][NMeGly(cPent)][NMeD]-Morpholide; lactam N-11) | C (A compound having a KD ratio of 0.1 or more and less than 3 is denoted as C) | B (a compound having 3 or more and less than 10 is denoted as B)
